Experimental findings from US7459479B2, “Benzylated PDE4 inhibitors” (Biolipox AB, priority 2000, dated 2008) are described below.

The structures appear in SMILES notation.

Data set [1] has as its system ferret model of emesis. Description: Emetic threshold after intravenous infusion in the ferret model of emesis. Type of data set: in vivo, ferret (Mustela putorius furo). Conditions: for Emetic Threshold: 5 minute intravenous infusion, 3 hour observation. An excerpt: The most recognized pre-clinical animal model for emesis is the ferret. The ferret undergoes a very characteristic, reproducible and well-documented series of behavioral responses, including backward walking, pawing of the mouth, arching of the back, retching and vomiting when dosed with an emetogenic compound. With respect to PDE4 inhibitors their emetogenic potential has been correlated with the ability of compounds to bind to a conformer of the enzyme to which ROLIPRAM™ binds with nanomolar affinity (the HARBS binding site). The central nervous system (CNS) and emetic effects of PDE4 inhibitors are therefore thought in large part to be due to the interaction of these compounds with this particular conformer of PDE4 which is especially prevalent in both the central and peripheral nervous system as well as in cells of the lumen of the gastrointestinal tract (i.e., parietal cells of the stomach).
Adult male ferrets (Mustela putorius furo, sable, 0.75-1.5 kg, Marshall Farms, USA) were quarantined and acclimated to the testing facility for seven days prior to initiation of the study. For intravenous infusion dosing, a catheter was surgically inserted in the jugular vein a minimum of 14 hours prior to administration of test articles and the catheter was maintained for patency by flushing with heparin solution daily. After surgery for catheter insertion the ferrets were individually housed in cages. Animals were fasted 12-16 hours prior to dosing and during the behavioral assessment period. They were returned to normal food diet after the observation periods. Animals found acceptable for inclusion in the study were randomly assigned to the each of the study groups (n=3 for each of the two treatment groups and n=3 for the vehicle negative control group).
Test compounds (ROLIPRAM™ and Compound 25) were freshly dissolved on the day of dosing in the vehicle, polyethylene glycol (PEG) 200 (Sigma catalogue number P-3015), to the required concentration in order to achieve the target dose. Animals in the control (PEG 200) and treatment (ROLIPRAM™ or Compound 25) groups were administered the dosing formulation at 3 ml/kg by intravenous infusion over a 5 minute period via the catheter inserted in the jugular. Continual observation for signs of emetic behavior were begun for each of the animals in the study groups immediately following completion of the 5 minute dosing period and for a period of three hours. Sequential recordings of emetic behaviour were noted on a separate data collection sheet for each animal which included the time of onset of each event as well as the duration and nature of the event (i.e., retching, gagging, vomiting, back arching, backward walking etc.).
The target doses for each of the test articles are shown below in Table 3. If animals expressed no emetic behaviour at the lowest dosage then animals were dosed again with semi-log increasing doses of test article and the three hour observation period repeated until the emetic threshold (lowest of test doses causing emesis) was reached or until the highest of the 4 target doses was completed. There was a 24 hr. washout period between each of the successive ascending doses of test article to allow the compound to clear the animals' system. […] If the emetic response was minimal at a particular dose level then the next dose level could be performed to confirm the threshold level.

In data set [2] the test system is HARBS site of PDE4. Description: Displacement of [3H]-ROLIPRAM from the high affinity binding site (HARBS) in mouse brain membranes. Conditions: for Ratio (PDE4/HARBS): ratio of PDE4 catalytic IC50 to HARBS IC50. As to the method:
(§1) In order to perform this assay, female CD1 mice are sacrificed via the intraperitoneal injection of 100 μL ethanol, and the brain tissue is homogenized in 5 mL of ice-cold Tris-HCl, pH 8.00 supplemented with 1.2 mM MgCl2, 1 mM benzamidine (Sigma; Catalogue No. B 6506) and 0.1 mM PMSF (Sigma; Catalogue No. P 7626). The suspension is centrifuged twice at 30,000×G at 4° C. and then the supernatant discarded. The pellet is resuspended in buffer, and adjusted to a protein concentration of 0.5 mg/mL. Compounds to be tested are dissolved in DMSO and pipetted in triplicate into a 96 well microplate at concentrations ranging from 1 to 30,000 nM. […] The plate is incubated at 4° C. for 1 hour. Contents of the plate are aspirated through a Whatman GF/C filterplate, and rinsed with 4×200 μL ice-cold buffer. The plate is dried overnight, and then 30 μL of Microscint 20 (Packard; Catalogue No. 6013621) is added to each well, and plate is read in the scintillation counter with a sampling time of 2 minutes/well. […] Triplicate determinations should be performed at each concentration.

Data set [3] addresses T1, HARBS site of PDE4.
T1 construct: HARBS IC50; other: mouse brain membranes, [3H]-ROLIPRAM displacement; other: mouse brain; other: relative to ROLIPRAM (25, 26) or
Described as above. Conditions: for IC50: mouse brain membranes, [3H]-ROLIPRAM displacement. Here is the method:
as §1

Data set [4] has as its system PDE4 (human promonocytic U937 cells). Description: PDE4 inhibition, Phosphodiesterase [3H] cAMP SPA enzyme assay with U937 extract. Conditions: 1 μM [3H] cAMP. Format: biochemical. An excerpt:
A test compound may be screened for activity against 11 of the major classes of mammalian cyclic nucleotide phosphodiesterase (termed PDE 1 through 11). These PDE's may use cAMP or cGMP or both cyclic nucleotides as substrates. […] PDE's for some of the various assays may be fully or partially purified from the following cells/tissues: PDE 1 (bovine heart), PDE 2 (human platelets), PDE 3 (human platelets), PDE4 (human promonocytic U937 cells) and PDE 5 (human platelets).
In the following descriptions, amounts are exemplary, and may be varied. […] Sonicated cell extracts are then centrifuged at 70,000 g for 30 minutes and supernatants removed. Sucrose is added to a final concentration of 0.25 M, then the extracts are aliquoted and stored at −80° C.
Briefly, the assay is run for 60 minutes at room temperature in 50 μL volumes in 1 μM [^3H] cAMP, 50 mM Tris Cl, 10 mM MgCl2 pH 7.5. U937 extract is added such that less than 10% of substrate was consumed. Test compound or vehicle is added to the desired concentration. […] Reactions are performed in duplicate. Reactions are terminated with 50 μl of Yttrium SPA beads and then counted on a Packard Scintillation counter (TopCount™) for 1 minute.

In the case of `COc1cc(CC2C(=O)NCC2c2ccc(OC)c(OC3CCCC3)c2)ccc1OCc1ccccc1` (centres unmarked) [Compound 25], the “Emetic Threshold” value in data set [1] (ferrets) was greater than 3.0 mg/kg; in data set [1] (ferrets, listed as compound 25) it was “greater than 3 mg/kg”. For the same compound, the “higher doses required to achieve emesis compared to rolipram” value in data set [1] (ferrets, i.v. infusion) was “at least 10 fold”. In addition, the emetic behaviour result in data set [1] (up to and including highest dose level tested (3 mg/kg) i.v. infusion) is reported as “no emetic behaviour whatsoever”. In data set [2], the “Ratio (PDE4/HARBS)” value is reported as 1.1. Besides, the IC50 was determined as 361 nM in data set [3] and 400 nM in data set [4]. Further, in data set [3] (relative to ROLIPRAM (25, 26) or ARIFLO (41)), the “reduction of HARBS binding affinity relative to parent non-benzylated compound” value is 56 fold.

`COc1cc(CC2C(=O)NCC2c2ccc(OC)c(OC3CCCC3)c2)ccc1O` (centres unmarked) [Compound 26]: the IC50 in data set [4] stood at 1490 nM.

Regarding `COc1ccc([C@]2(C#N)CC[C@@H](C(=O)O)CC2)cc1OC1CCCC1` [ARIFLO ™, reference compound], the “Ratio (PDE4/HARBS)” value in data set [2] turned out to be 2.4. For the same compound, the IC50 stood at 76 nM in data set [3] and 180 nM in data set [4].

Take `COc1ccc(C2CNC(=O)C2)cc1OC1CCCC1` (centres unmarked) [ROLIPRAM ™, reference compound]: the emetic signs result in data set [1] (0.1 mg/kg i.v. infusion) is reported as “Emetic signs were also evident”. In addition, in data set [1] (0.3 mg/kg i.v. infusion, n=3), the “ferrets exhibiting a definite emetic response” value is listed as “one of the three ferrets”. For the same compound, the mild retches observed in data set [1] (0.3 mg/kg i.v., in one ferret, over 9 minutes starting at 10 minutes post-dosing) was 5. Moreover, in data set [1] (ferrets), the “Emetic Threshold” value is reported as 0.3 mg/kg. Further, in data set [2], the “greater affinity to high affinity site than the concentration required for half-maximal inhibition of PDE4 catalytic activity” value amounted to 65 fold.
